From patent publication US20220016035A1, “Extended Release Highly Loaded Drug Compositions” (Lubrizol Advanced Materials, Inc., priority 2017, published 2022)

Key:
[1] = Forced degradation testing of Levetiracetam blends (Table 8), Levetiracetam acid and total impurities by HPLC; assay type: physicochemical; details: blend, 12 Day exposure, 60 C./75% RH
[2] = Forced degradation testing of Levetiracetam tablets and powder blends, 12 days, impurities by HPLC; assay type: physicochemical; details: Levetiracetam examples, forced degradation conditions
Experimental: 1.4 g of anhydrous di basic sodium phosphate in 1 liter of water. Adjusted to pH 3.5 with Orth phosphoric acid. Filter buffer with 0.45 um Nylon membrane filter paper. A mixture of 95 volumes of buffer solution and 5 volumes of Acetonitrile. To each 1 Liter of the mixture, add 1 g of sodium 1-hexanesulfonate monohydrate. […] Cool and make up to the volume with water. (Standard Stock Solution 2500 ppm). Next, Dilute 5 mL of standard solution a to 50 mL with water (Standard Solution (a) 250 ppm), further Dilute 5 mL of standard solution (a) to 100 mL with water (Standard Solution 12.5 ppm). […] Cool to room temperature and add 25 mL of acetonitrile to volumetric flask and make up the volume with water and centrifuge for 15 min @ 3500 RPM. filter the solution with 0.45 μm PVDF Millipore membrane syringe filter by discarding first 5 mL of filtrate. Dilute 5 mL of filtrate to 10 mL with water (2500 ppm). This group of examples is subjected to forced degradation testing conditions, where each example is formed into a tablet and then stored at 60 to 80 degrees C. and 75% relative humidity for a period of 5 or 12 days. At the end of the 5 days or 12 days each tablet is tested for its pH level and percent impurities. […]

| SMILES | Levetiracetam Acid [1] | WT % IMPURITY [2] [WT %] |
| --- | --- | --- |
| CC[C@@H](C(N)=O)N1CCCC1=O [EX 34, Levetiracetam] | 0.01 | – |
| CC[C@@H](C(N)=O)N1CCCC1=O [EX 31, Levetiracetam] | – | 0.02 |
